Laboratory results published in patent US20250288573A1 (H. LEE MOFFITT CANCER CENTER AND RESEARCH INSTITUTE, INC., priority 2018, published 2025).
Read-outs that look alike come from different tables or passages of the source.

How the values were obtained:
CRBN = biological target: T1, CRBN (Homo sapiens, UniProt Q96SW2); test: Western blot for expression of CRBN relative to vinculin in human T cells (CRBN degradation); type: cell-based; conditions: read-out: Relative Density of CRBN (% of DMSO); for remaining activity at 0.01 µM: 24 h
T1 construct: endogenous in cells; host or cells: primary human T cells / CD8+ T cells from peripheral blood
Excerpt: Bortez=bortezomib; MG132=proteasome inhibitor; MLN4924=NEDD8 inhibitor.
This assay is a standard Western blot assay for expression of CRBN relative to vinculin.
[…] 0.1 percent DMSO was used as a vehicle control.

cereblon (CRBN) = cereblon (CRBN) (Homo sapiens, UniProt Q96SW2); test: Kd and % inhibition from FI; type: binding; conditions: for inhibition at 200 µM: read-out: % inhibition @ 200 uM from *FI
[1] = cell does not state FI or ITC, read-out: Kd (A) FI/ITC
[2] = FI, read-out: Kd (FI) (converted)

Chain of cereblon (CRBN) (Q96SW2 whole entry, species assumed): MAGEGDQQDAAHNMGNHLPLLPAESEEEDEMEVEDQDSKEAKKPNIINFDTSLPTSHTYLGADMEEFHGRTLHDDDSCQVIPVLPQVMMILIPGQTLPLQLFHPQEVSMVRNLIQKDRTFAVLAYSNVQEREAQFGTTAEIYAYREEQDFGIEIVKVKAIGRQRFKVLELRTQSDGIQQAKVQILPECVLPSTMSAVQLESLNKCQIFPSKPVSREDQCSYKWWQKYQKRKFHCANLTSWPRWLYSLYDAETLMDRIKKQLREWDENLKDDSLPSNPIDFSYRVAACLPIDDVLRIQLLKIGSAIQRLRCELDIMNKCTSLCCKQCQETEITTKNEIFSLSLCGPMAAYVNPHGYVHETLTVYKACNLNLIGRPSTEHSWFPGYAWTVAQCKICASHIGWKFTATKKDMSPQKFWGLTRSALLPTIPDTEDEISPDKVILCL
T1 sequence (Q96SW2 whole entry): as the sequence (Q96SW2 whole entry, species assumed) above

O=C1CCC(N2Cc3c(C#CCCCCCCC#Cc4cccc5c4CN(C4CCC(=O)NC4=O)C5=O)cccc3C2=O)C(=O)N1 (stereo not shown) [EC2-086, 3,3′-(Deca-1,9-diyne-1,10-diylbis(1-oxoisoindoline-4,2-diyl))bis(piperidine-2,6-dione)]
remaining activity at 10 µM (CRBN; 10uM): 10.3% | Kd (cereblon (CRBN); [1]): 86.5 ± 25.3 µM

O=C(COc1cccc2c1C(=O)N(C1CCC(=O)NC1=O)C2=O)NCCCOCCCNC(=O)COc1cccc2c1C(=O)N(C1CCC(=O)NC1=O)C2=O (stereo not shown) [SM2-126]
remaining activity at 10 µM (CRBN; 10uM): 13.2% | remaining activity at 0.01 µM (CRBN; 10nM, human T cells, 24 hours): 136% | Kd (cereblon (CRBN); [2]): 13.7 ± 0.7 µM | inhibition at 200 µM (cereblon (CRBN)): 88.9 ± 1.54%

O=C1CCC(N2C(=O)c3cccc(NC(=O)[C@H]4CC[C@@H](C(=O)Nc5cccc6c5C(=O)N(C5CCC(=O)NC5=O)C6=O)CC4)c3C2=O)C(=O)N1 (stereo partly drawn) [EC1-133, (cis)-N^1,N^4-bis(2-(2,6-Dioxopiperidin-3-yl)-1,3-dioxoisoindolin-4-yl)cyclohexane-1,4-dicarboxamide]
remaining activity at 10 µM (CRBN; 10uM): 10.3% | remaining activity at 0.01 µM (CRBN; 10nM, human T cells, 24 hours): 119% | % inhibition @ 200 uM from *FI (cereblon (CRBN)): n.b.

O=C1CCC(N2Cc3c(NC(=O)[C@H]4CC[C@H](C(=O)Nc5cccc6c5CN(C5CCC(=O)NC5=O)C6=O)CC4)cccc3C2=O)C(=O)N1 (stereo partly drawn) [EC1-154, (Trans)-N^1,N^4-Bis(2-(2,6-dioxopiperidin-3-yl)-1-oxoisoindolin-4-yl)cyclohexane-1,4-dicarboxamide]
remaining activity at 0.01 µM (CRBN): 103% | remaining activity at 10 µM (CRBN): 44.2% | inhibition at 200 µM (cereblon (CRBN)): 18.4 ± 77%

O=C(/C=C/c1cccc2c1CN(C1CCC(=O)NC1=O)C2=O)NCCOCCOCCOCCNC(=O)/C=C/c1cccc2c1CN(C1CCC(=O)NC1=O)C2=O (stereo not shown) [SM3-009, (2E,2′E)-N,N′-(((Oxybis(ethane-2,1-diyl))bis(oxy))bis(ethane-2,1-diyl))bis(3-(2-(2,6-dioxopiperidin-3-yl)-1-oxoisoindolin-4-yl)acrylamide)]
remaining activity at 10 µM (CRBN; 10uM): 59.1% | remaining activity at 0.01 µM (CRBN; 10nM, human T cells, 24 hours): 108% | Kd (cereblon (CRBN); [2]): 8.21 ± 1.22 µM | inhibition at 200 µM (cereblon (CRBN)): 83.88 ± 0.28%

O=C1CCC(N2Cc3c(NC(=O)CCCCC(=O)Nc4cccc5c4CN(C4CCC(=O)NC4=O)C5=O)cccc3C2=O)C(=O)N1 (stereo not shown) [EC1-149, N^1,N^6-Bis(2-(2,6-dioxopiperidin-3-yl)-1-oxoisoindolin-4-yl)adipamide]
remaining activity at 10 µM (CRBN; 10uM): 1.74% | remaining activity at 0.01 µM (CRBN; 10nM, human T cells, 24 hours): 76.3% | Kd (cereblon (CRBN); [2]): 22.8 ± 0.55 µM | inhibition at 200 µM (cereblon (CRBN)): 87.3 ± 2%

O=C1CCC(N2Cc3c(CCCOCCOCCOCCOCCOCCCc4cccc5c4CN(C4CCC(=O)NC4=O)C5=O)cccc3C2=O)C(=O)N1 (stereo not shown) [SM2-156, 3,3′-((4,7,10,13,16-Pentaoxanonadecane-1,19-diyl)bis(1-oxoisoindoline-4,2-diyl))bis(piperidine-2,6-dione)]
remaining activity at 10 µM (CRBN; 10uM): 33.4% | remaining activity at 0.01 µM (CRBN; 10nM, human T cells, 24 hours): 56.8% | Kd (cereblon (CRBN); [2]): 11.2 ± 0.53 µM | inhibition at 200 µM (cereblon (CRBN)): 79.5 ± 2.29%

O=C1CCC(N2Cc3c(NC(=O)CCCC(=O)Nc4cccc5c4CN(C4CCC(=O)NC4=O)C5=O)cccc3C2=O)C(=O)N1 (stereo not shown) [EC1-148, N^1,N^5-Bis(2-(2,6-dioxopiperidin-3-yl)-1-oxoisoindolin-4-yl)glutaramide]
remaining activity at 10 µM (CRBN; 10uM): 2.97% | remaining activity at 0.01 µM (CRBN; 10nM, human T cells, 24 hours): 73.8% | Kd (cereblon (CRBN); [2]): 23.6 ± 2.55 µM | inhibition at 200 µM (cereblon (CRBN)): 83.6 ± 4%

O=C1CCC(N2Cc3c(NC(=O)CCCCCCC(=O)Nc4cccc5c4CN(C4CCC(=O)NC4=O)C5=O)cccc3C2=O)C(=O)N1 (stereo not shown) [EC1-150, N^1,N^8-Bis(2-(2,6-dioxopiperidin-3-yl)-1-oxoisoindolin-4-yl)octanediamide]
remaining activity at 10 µM (CRBN; 10uM): 6.33% | remaining activity at 0.01 µM (CRBN; 10nM, human T cells, 24 hours): 99.3% | Kd (cereblon (CRBN); [2]): 18.3 ± 1.54 µM | inhibition at 200 µM (cereblon (CRBN)): 57.2 ± 10%

O=C1CC[C@H](N2Cc3c(C#CCOCCOCC#Cc4cccc5c4CN([C@H]4CCC(=O)NC4=O)C5=O)cccc3C2=O)C(=O)N1 [XS01-008B2, (3S,3'S)-3,3′-(((Ethane-1,2-diylbis(oxy))bis(prop-1-yne-3,1-diyl))bis(1-oxoisoindoline-4,2-diyl))bis(piperidine-2,6-dione)]
remaining activity at 0.01 µM (CRBN; 10nM, human T cells, 24 hours): 11.8% | Kd (cereblon (CRBN); [2]): 2.53 ± 1.53 µM

O=C1CCC(N2C(=O)c3cccc(NC(=O)CCCCCCC(=O)Nc4cccc5c4C(=O)N(C4CCC(=O)NC4=O)C5=O)c3C2=O)C(=O)N1 (stereo not shown)
remaining activity at 10 µM (CRBN; 10uM): 11.7% | remaining activity at 0.01 µM (CRBN; 10nM, human T cells, 24 hours): 44.2% | % inhibition @ 200 uM from *FI (cereblon (CRBN)): n.b.

O=C1CCC(N2Cc3c(NC(=O)CCCCCCCC(=O)Nc4cccc5c4CN(C4CCC(=O)NC4=O)C5=O)cccc3C2=O)C(=O)N1 (stereo not shown) [EC1-151, N^1,N^9-Bis(2-(2,6-dioxopiperidin-3-yl)-1-oxoisoindolin-4-yl)nonanediamide]
remaining activity at 10 µM (CRBN; 10uM): 32% | remaining activity at 0.01 µM (CRBN; 10nM, human T cells, 24 hours): 137% | Kd (cereblon (CRBN); [2]): 14.2 ± 3.16 µM | inhibition at 200 µM (cereblon (CRBN)): 46.7 ± 9%

O=C1CCC(N2Cc3c(CCCCCCCCCCc4cccc5c4CN(C4CCC(=O)NC4=O)C5=O)cccc3C2=O)C(=O)N1 (stereo not shown) [EC2-093, 3,3′-(Decane-1,10-diylbis(1-oxoisoindoline-4,2-diyl))bis(piperidine-2,6-dione)]
remaining activity at 10 µM (CRBN; 10uM): 13.3% | Kd (cereblon (CRBN); [1]): 35.5 ± 47.9 µM

O=C1CCC(N2C(=O)c3cccc(NC(=O)CCCCCC(=O)Nc4cccc5c4C(=O)N(C4CCC(=O)NC4=O)C5=O)c3C2=O)C(=O)N1 (stereo not shown) [EC1-119, N^1,N^7-bis(2-(2,6-Dioxopiperidin-3-yl)-1,3-dioxoisoindolin-4-yl)heptanediamide]
remaining activity at 10 µM (CRBN; 10uM): 4.91% | remaining activity at 0.01 µM (CRBN; 10nM, human T cells, 24 hours): 30.5% | inhibition at 200 µM (cereblon (CRBN)): 18 ± 20%

O=C(COc1cccc2c1C(=O)N(C1CCC(=O)NC1=O)C2=O)NCCCCNC(=O)COc1cccc2c1C(=O)N(C1CCC(=O)NC1=O)C2=O (stereo not shown) [SY2-060, N,N′-(Butane-1,4-diyl)bis(2-((2-(2,6-dioxopiperidin-3-yl)-1,3-dioxoisoindolin-4-yl)oxy)acetamide)]
remaining activity at 0.01 µM (CRBN): 104% | inhibition at 200 µM (cereblon (CRBN)): 1.52 ± 1.91%

O=C1CCC(N2C(=O)c3cccc(NC(=O)CCCCCCCCC(=O)Nc4cccc5c4C(=O)N(C4CCC(=O)NC4=O)C5=O)c3C2=O)C(=O)N1 (stereo not shown) [EC1-132, N^1,N^10-bis(2-(2,6-Dioxopiperidin-3-yl)-1,3-dioxoisoindolin-4-yl)decanediamide]
remaining activity at 10 µM (CRBN; 10uM): 33% | remaining activity at 0.01 µM (CRBN; 10nM, human T cells, 24 hours): 33.4% | % inhibition @ 200 uM from *FI (cereblon (CRBN)): n.b.

O=C(/C=C/c1cccc2c1CN(C1CCC(=O)NC1=O)C2=O)NCCOCCOCCNC(=O)/C=C/c1cccc2c1CN(C1CCC(=O)NC1=O)C2=O (stereo not shown) [SM3-003, (2E,2′E)-N,N′-((ethane-1,2-diylbis(oxy))bis(ethane-2,1-diyl))bis(3-(2-(2,6-dioxopiperidin-3-yl)-1-oxoisoindolin-4-yl)acrylamide)]
remaining activity at 10 µM (CRBN; 10uM): 102% | remaining activity at 0.01 µM (CRBN; 10nM, human T cells, 24 hours): 125% | Kd (cereblon (CRBN); [2]): 14.3 ± 0.05 µM | inhibition at 200 µM (cereblon (CRBN)): 72 ± 0.8%

O=C1CCC(N2C(=O)c3cccc(NC(=O)CCCC(=O)Nc4cccc5c4C(=O)N(C4CCC(=O)NC4=O)C5=O)c3C2=O)C(=O)N1 (stereo not shown) [EC1-117, N^1,N^5-bis(2-(2,6-Dioxopiperidin-3-yl)-1,3-dioxoisoindolin-4-yl)glutaramide]
remaining activity at 10 µM (CRBN; 10uM): 19.8% | remaining activity at 0.01 µM (CRBN; 10nM, human T cells, 24 hours): 114% | inhibition at 200 µM (cereblon (CRBN)): 47.9 ± 11%

O=C1CCC(N2C(=O)c3cccc(NC(=O)CCCCC(=O)Nc4cccc5c4C(=O)N(C4CCC(=O)NC4=O)C5=O)c3C2=O)C(=O)N1 (stereo not shown) [EC1-120, N^1,N^6-bis(2-(2,6-Dioxopiperidin-3-yl)-1,3-dioxoisoindolin-4-yl)adipamide]
remaining activity at 10 µM (CRBN; 10uM): 16.8% | remaining activity at 0.01 µM (CRBN; 10nM, human T cells, 24 hours): 95.3% | inhibition at 200 µM (cereblon (CRBN)): 23.2 ± 20%

O=C1CCC(N2Cc3c(NC(=O)CCCCCCCCC(=O)Nc4cccc5c4CN(C4CCC(=O)NC4=O)C5=O)cccc3C2=O)C(=O)N1 (stereo not shown) [EC1-152, N^1,N^10-Bis(2-(2,6-dioxopiperidin-3-yl)-1-oxoisoindolin-4-yl)decanediamide]
remaining activity at 10 µM (CRBN; 10uM): 28.2% | remaining activity at 0.01 µM (CRBN; 10nM, human T cells, 24 hours): 133% | Kd (cereblon (CRBN); [2]): 15.5 ± 2.26 µM | inhibition at 200 µM (cereblon (CRBN)): 47.9 ± 2%

O=C1CCC(N2Cc3c(C#CCOCCOCC#Cc4cccc5c4CN(C4CCC(=O)NC4=O)C5=O)cccc3C2=O)C(=O)N1 (stereo not shown) [SY4-065]
remaining activity at 10 µM (CRBN; 10uM): 136% | remaining activity at 0.01 µM (CRBN; 10nM, human T cells, 24 hours): 1.75% | Kd (A) FI/ITC (cereblon (CRBN); cell does not state FI or ITC): n.b.

O=C1CCC(N2C(=O)c3cccc(NC(=O)[C@H]4CC[C@H](C(=O)Nc5cccc6c5C(=O)N(C5CCC(=O)NC5=O)C6=O)CC4)c3C2=O)C(=O)N1 (stereo partly drawn) [EC1-135, (trans)-N^1,N^4-bis(2-(2,6-Dioxopiperidin-3-yl)-1,3-dioxoisoindolin-4-yl)cyclohexane-1,4-dicarboxamide]
remaining activity at 10 µM (CRBN; 10uM): 36.5% | remaining activity at 0.01 µM (CRBN; 10nM, human T cells, 24 hours): 134% | % inhibition @ 200 uM from *FI (cereblon (CRBN)): n.b.

O=C1CCC(N2Cc3c(OCc4ccc(CN5CCN(Cc6ccc(COc7cccc8c7CN(C7CCC(=O)NC7=O)C8=O)cc6)CC5)cc4)cccc3C2=O)C(=O)N1 (stereo not shown) [EC1-168.MS]
remaining activity at 10 µM (CRBN; 10uM): 107% | Kd (A) FI/ITC (cereblon (CRBN); cell does not state FI or ITC): insoluble
